From article PMC6271731, “Multitarget Molecular Hybrids of Cinnamic Acids” (Molecules, 2014) come the findings set out here.

Read-outs that look alike come from different tables or passages of the source. Marks after values point to notes of the source that are not given here.

Data set [1] addresses T1, pancreatic bovine trypsin (Bos taurus, UniProt P00760).
T1 construct: purchased Sigma Chemical, Co. (St. Louis, MO, USA)
T1 sequence (P00760 24-246): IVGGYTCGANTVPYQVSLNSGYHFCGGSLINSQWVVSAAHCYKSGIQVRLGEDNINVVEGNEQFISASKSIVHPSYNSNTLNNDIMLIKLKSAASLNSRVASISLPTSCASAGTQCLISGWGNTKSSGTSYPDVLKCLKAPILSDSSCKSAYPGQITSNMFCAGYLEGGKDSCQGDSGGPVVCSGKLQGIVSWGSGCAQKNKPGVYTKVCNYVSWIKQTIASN
As to the kind of experiment: Inhibition of trypsin induced proteolysis in vitro. Type of data set: biochemical. Conditions: for inhibition at 100 µM: read-out: % Trypsin Inh.; for IC50: read-out: IC50 μM Trypsin Inh.; for inhibition at 100 µM / % Trypsin Inh.: % inhibition at 100 μM. An excerpt: All chemicals, solvents, chemical and biochemical reagents were of analytical grade and purchased from commercial sources (Merck, Merck KGaA, Darmstadt, Germany, Fluka Sigma-Aldrich Laborchemikalien GmbH, Hannover, Germany, Alfa Aesar, Karlsruhe, Germany and Sigma, St. Louis, MO, USA). Soybean lipoxygenase, pancreatic bovine trypsin, sodium linoleate, free radical DPPH and 2,2-azinobis-2-methyl-propanimidamine HCl (AAPH) were obtained from Sigma Chemical, Co. (St. Louis, MO, USA), carrageenin, type K, was commercially available. All starting materials were obtained from commercial sources and used without further purification.
The test was carried out according to a modified Kunitz method. Bovine albumin was used as substrate for trypsin. The reaction mixture consisted of 0.075 mg/mL trypsin (200 μL) and 780 μL of phosphate buffer pH 7.6 (including the tested compounds (20 μL in DMSO, final concentration 100 μM) preincubated at 37 °C for 20 min and then 1 mL of albumin (stock solution 6 g/100 mL in phosphate buffer 0.1 M, pH 7.6) was added and incubated at 37 °C for 30 min. After the incubation 1 mL of 5% trichloroacetic acid was added to the incubated solution to stop the enzyme’s reaction and allowed to set at room temperature for 1 h. Then the solution was filtered by filter paper and the absorption of the filtered solution was measured at 280 nm. Salicylic acid was used as a reference compound (Table 1).

Data set [2] in a line: Inhibition of linoleic acid lipid peroxidation (AAPH). Conditions: % inhibition at 100 μM; pH 7.4, 37 °C. Here is the method: Production of conjugated diene hydroperoxide by oxidation of sodium linoleate in an aqueous dispersion is monitored at 234 nm. AAPH is used as a free radical initiator [12, 24]. Ten microlitres of the 16 mM sodium linoleate solution was added to the UV cuvette containing 930 μL of 0.05 M phosphate buffer, pH 7.4 prethermostated at 37 °C. The oxidation reaction was initiated at 37 °C under air by the addition of 40 mM AAPH solution (50 μL). Ten μL of the tested compounds were added in the mixture. Lipid oxidation was measured in the presence of the same level of DMSO. The rate of oxidation at 37 °C was monitored by recording the increase in absorption at 234 nm caused by conjugated diene hydroperoxides. The results were compared to the appropriate standard inhibitor trolox (63%) (Table 1).

Data set [3] has as its system acetic acid-induced writhing. As to the kind of experiment: Antinociceptive screen (writhing test). Type of data set: in vivo, Wistar rats. Conditions: i.p. 30 min before 0.6% acetic acid, writhes counted over 30 min; for inhibition in vivo at 0.01 mmol/0.1 kg: Rattus norvegicus, ip, 0.5 h, read-out: % ANA (in vivo analgesic-antinociceptive activity). The method, then: Anti-inflammatory tests were conducted on Fisher-344 inbred rats of ca. 200 g body weight whereas antinociception and motor and sensory functions after sciatic nerve crash were performed on Wistar rats. Both sexes were used. Females pregnant were excluded. Each group was composed of 6 animals. The animals, which have been bred in our laboratory, were housed under standard conditions and received a diet of commercial food pellets and water ad libitum during the maintenance. Our studies were carried out in accordance with recognised guidelines on animal experimentation.
[…] Controls received the liquid vehicle only. All the in vivo experiments were repeated at least in triplicate and were subjected to statistic analysis using the student’s t-test.
The writhing reflex was used. The test compounds were administered i.p. 30 min prior to the i.p. administration of 1 mL/100 g body weight of 0.6% acetic acid. […] After 5 min, the number of stretches characterized by repeated contractions of the abdominal musculature accompanied by extension of the hind limbs was counted every 5 min for the next 30 min. […] The % antinociceptive activity (a:a) was calculated as: % a:a = (n − n'/n) × 100 (a: a analgesic activity, n average number of writhes of control group, n' average number in the test group).

For data set [4], the target named is T2, soybean lipoxygenase (Glycine max, UniProt P08170).
T2 construct: purchased Sigma Chemical, Co. (St. Louis, MO, USA)
T2 sequence (P08170 1-839): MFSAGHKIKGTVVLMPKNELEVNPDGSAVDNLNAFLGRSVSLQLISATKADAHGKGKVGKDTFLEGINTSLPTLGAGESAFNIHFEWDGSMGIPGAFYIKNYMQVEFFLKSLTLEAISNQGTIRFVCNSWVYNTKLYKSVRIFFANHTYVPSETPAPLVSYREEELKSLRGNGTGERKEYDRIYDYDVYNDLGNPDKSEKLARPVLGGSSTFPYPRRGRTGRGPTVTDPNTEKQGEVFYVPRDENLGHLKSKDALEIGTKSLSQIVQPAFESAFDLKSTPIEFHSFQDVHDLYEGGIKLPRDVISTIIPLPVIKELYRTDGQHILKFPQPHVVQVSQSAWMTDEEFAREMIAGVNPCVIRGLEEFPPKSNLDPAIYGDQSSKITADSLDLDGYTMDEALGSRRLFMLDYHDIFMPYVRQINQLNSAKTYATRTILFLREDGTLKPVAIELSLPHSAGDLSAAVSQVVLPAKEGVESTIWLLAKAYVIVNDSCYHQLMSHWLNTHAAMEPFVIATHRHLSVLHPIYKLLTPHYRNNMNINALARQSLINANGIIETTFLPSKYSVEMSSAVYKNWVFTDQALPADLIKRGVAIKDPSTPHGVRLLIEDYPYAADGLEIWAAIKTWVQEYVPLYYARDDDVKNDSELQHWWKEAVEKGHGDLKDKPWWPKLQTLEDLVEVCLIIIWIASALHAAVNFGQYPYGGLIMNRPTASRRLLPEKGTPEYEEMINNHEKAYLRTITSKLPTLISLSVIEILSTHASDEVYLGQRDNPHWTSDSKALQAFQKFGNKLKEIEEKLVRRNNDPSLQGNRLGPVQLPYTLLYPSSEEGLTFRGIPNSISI
As to the kind of experiment: Soybean lipoxygenase inhibition in vitro. It counts as biochemical. Conditions: for inhibition at 100 µM: read-out: % LOX Inh. Here is the method:
DMSO solution of the tested compound was incubated with sodium linoleate (0.1 mM) and 0.2 mL of soybean lipoxygenase solution (1/9 × 10^−4 w/v in saline) in buffer pH 9 (tris) and at room temperature. […] The results are given in Table 1 expressed as IC50 values or % inhibition at 100 μM.

Data set [5] is described as follows: Lipophilicity as RM values by RP-TLC. Type of data set: physicochemical. Conditions: methanol/water 70/30, 24 °C, average of at least five measurements. An excerpt: Since lipophilicity is a significant physicochemical property determining distribution, bioavailability, metabolic activity and elimination, we tried to determine experimentally the lipophilicity of the new substances by a RPTLC method as RM values (Table 1) and to compare them with the corresponding theoretically calculated clog p values in n-octanol-buffer. This is considered to be a reliable, fast and convenient method for expressing lipophilicity. Lipophilicity (Table 2), was theoretically calculated as Clog p values in n-octanol-buffer by the CLOGP Programme of Biobyte Corp..
Reversed phase TLC (RP-TLC) was performed on silica gel plates impregnated with 5% (v/v) liquid paraffin in light petroleum ether. The mobile phase was a methanol/water mixture (70/30, v/v). The plates were developed in closed chromatography tanks saturated with the mobile phase at 24 °C. Spots were detected under UV light. RM values were determined from the corresponding Rf values (from five individual measurements) using the equation RM = log [(1/Rf) − 1] (Table 1).

[6] abbreviates: sodium linoleate 0.1 mM, tris buffer pH 9, room temperature, read-out: IC50 μM LOX Inh.
Setting [7] is: bovine albumin substrate, pH 7.6, 37 °C.
Setting [8] is: sodium linoleate 0.1 mM, tris buffer pH 9, room temperature.

In the case of `CCOC(=O)c1ccc(N)cc1` [Benzocaine, reference compound], in data set [1], the inhibition at 100 µM is 28%. For the same compound, the “AAPH % (% inhibition of lipid peroxidation)” value in data set [2] was 25%.

Regarding `CC(=O)Nc1ccc(OC(=O)/C=C/c2ccccc2)cc1` [Compound 1a, (E) 4-Acetamidophenyl cinnamate], the inhibition at 100 µM in data set [1] was determined as 34%. In data set [3], the inhibition in vivo at 0.01 mmol/0.1 kg is 77.3%. For the same compound, the IC50 in data set [4] (setting [6]) came to 10 µM. Besides, the “AAPH % (% inhibition of lipid peroxidation)” value in data set [2] is 95%. For the same compound, in data set [5], the “RM (±S.D.)” value is on record as −0.725 ± 0.009.

With `O=C(/C=C/c1cccc(Oc2ccccc2)c1)Oc1ccc2ccc(=O)oc2c1` [Compound 2c, (E)-2-Oxo-2H-chromen-7-yl 3-(3-phenoxyphenyl)acrylate], the IC50 in data set [1] (setting [7]) was found to be 10 µM. In addition, in data set [3], the inhibition in vivo at 0.01 mmol/0.1 kg stood at 70.4%. In addition, the inhibition at 100 µM in data set [4] came out at 20%. In addition, the “IC50 μM LOX Inh.” value in data set [4] (setting [8]) is on record as “low or no activity”. Further, in data set [2], the “AAPH % (% inhibition of lipid peroxidation)” value was 93%. Also, in data set [5], the “RM (±S.D.)” value is 0.444 ±0.008.

Consider `CC(=O)Nc1cccc(OC(=O)/C=C/c2cccc(Oc3ccccc3)c2)c1` [Compound 2e, 3-Acetamidophenyl (E)-3-(3-phenoxyphenyl)acrylate], for which the “% ANA (in vivo analgesic-antinociceptive activity)” value in data set [3] (0.01 mmol/0.1 kg) is on record as 98.1 ** %. Further, the inhibition in vivo at 0.01 mmol/0.1 kg in data set [3] worked out at 98.1%. In data set [4] (setting [6]), the IC50 is 0.34 µM. Moreover, the “AAPH % (% inhibition of lipid peroxidation)” value in data set [2] came to 60%. Besides, the “RM (±S.D.)” value in data set [5] amounted to 0.407 ± 0.015.

Regarding `O=C(/C=C/c1cccc(Oc2ccccc2)c1)Nc1ccc(O)cc1` [Compound 2f, (E)-N-(4-Hydroxyphenyl)-3-(3-phenoxyphenyl)acrylamide], in data set [1] (setting [7]), the concentration for half-maximal inhibition (IC50) was 26 µM. In addition, in data set [4] (setting [8]), the “IC50 μM LOX Inh.” value is given as “low or no activity”. Besides, the “AAPH % (% inhibition of lipid peroxidation)” value in data set [2] was 100%. For the same compound, the “RM (±S.D.)” value in data set [5] is reported as −0.116 ± 0.003.

As to `O=C(/C=C/c1cccc(Oc2ccccc2)c1)Nc1cccc(OC(=O)/C=C/c2cccc(Oc3ccccc3)c2)c1` [Compound 2g], the IC50 in data set [1] (setting [7]) came to 43.6 µM; in data set [4], 72 µM. Moreover, the “AAPH % (% inhibition of lipid peroxidation)” value in data set [2] amounted to 60%. Also, the “RM (±S.D.)” value in data set [5] was 1.092 ± 0.044.

With `CCOC(=O)c1ccc(NC(=O)/C=C/c2cccc(Oc3ccccc3)c2)cc1` [Compound 2h, (E)-Ethyl 4-(3-(3-phenoxyphenyl)acrylamido)benzoate], the IC50 in data set [1] (setting [7]) is 50 µM; in data set [4], 100 µM. The “AAPH % (% inhibition of lipid peroxidation)” value in data set [2] turned out to be 64%. Further, in data set [5], the “RM (±S.D.)” value is reported as 0.399 ± 0.045.

As to `Cc1cc(=O)oc2cc(OC(=O)/C=C/c3ccc(OCc4ccc(Br)cc4)cc3)ccc12` [Compound 3b, (E)-4-Methyl-2-oxo-2H-chromen-7-yl-3-(4-((4-bromobenzyl)oxy)phenyl)acrylate], the figures for the IC50 in data set [1] (setting [7]) and in data set [4] were 5 µM and 50 µM, respectively. The “AAPH % (% inhibition of lipid peroxidation)” value in data set [2] turned out to be 90%. The “RM (±S.D.)” value in data set [5] is reported as −0.602 ± 0.01.

For `CC(=O)Nc1ccc(OC(=O)/C=C/c2cccs2)cc1` [Compound 4a, (E)-4-Acetamidophenyl 3-(thiophen-2-yl)acrylate], the “IC50 μM Trypsin Inh.” value in data set [1] (setting [7]) is given as “low or no activity”. The inhibition at 100 µM in data set [4] amounted to 16%. In addition, the “IC50 μM LOX Inh.” value in data set [4] (setting [8]) is reported as “low or no activity”. Moreover, the “AAPH % (% inhibition of lipid peroxidation)” value in data set [2] came out at 95%. In addition, the “RM (±S.D.)” value in data set [5] is on record as −0.826 ± 0.05.

Turning to `O=c1ccc2ccc(O)cc2o1` [Compound 7-HC, 7-hydroxycoumarin, reference compound], the IC50 in data set [1] (setting [7]) was 100 µM. For the same compound, the “AAPH % (% inhibition of lipid peroxidation)” value in data set [2] worked out at 92%.

Turning to `O=c1ccc2ccccc2o1` [Coumarin, reference compound], in data set [1], the inhibition at 100 µM turned out to be 13%.

Consider `Cc1cc(=O)oc2cc(O)ccc12` [Hymechromone, 4-methyl-7-hydroxycoumarin, reference compound], for which the inhibition at 100 µM in data set [1] is 60%. The “AAPH % (% inhibition of lipid peroxidation)” value in data set [2] worked out at 93%.

For the compound `Cc1c(C)c2c(c(C)c1O)CCC(C)(C(=O)O)O2` (stereo not shown) [Trolox, reference compound], the “AAPH % (% inhibition of lipid peroxidation)” value in data set [2] is recorded as 63%.

As for `Nc1cccc(O)c1` [m-AP, m-aminophenol, reference compound], the “% Trypsin Inh.” value in data set [1] is given as 90%. Further, the “AAPH % (% inhibition of lipid peroxidation)” value in data set [2] is 95%.

With `Nc1ccc(O)cc1` [p-AP, p-aminophenol, reference compound], in data set [1], the “% Trypsin Inh.” value is reported as 87%. Also, the “AAPH % (% inhibition of lipid peroxidation)” value in data set [2] is on record as 99%.

By IC50 is commonly meant the concentration that gives 50% inhibition.
